Test results from paper PMC6236315 (Molecular Medicine Reports, 2018).
Where a name gives a salt, the structure may show the parent alone.

Key:
LAD2 mast cells [1] = assay: β-Hexosaminidase release; assay type: cell-based, human; details: 37°C
LAD2 mast cells [2] = assay: LL-37 internalization into LAD2 cells; assay type: cell-based, human; details: 37°C
[3] = chlorpromazine 2.5 µM, 30 min pre-treatment, then LL-37 5 µM, 40 min
[4] = genistein 10 µM, 30 min pre-treatment, then LL-37 5 µM, 40 min
[5] = pertussis toxin 250 ng/ml, 1 h pre-treatment, then LL-37 5 µM for 40 min

With `O=C(N/N=C/c1ccc(O)c(O)c1)c1cc2ccccc2cc1O` [dynasore, Dynasore] the “effect on LL-37-induced degranulation (β-hexosaminidase release)” value (“effect on LL-37-induced degranulation” below) (LAD2 mast cells [1]; dynasore 10 µM, 30 min pre-treatment, then LL-37 5 µM, 40 min) was “inhibited degranulation”.

`CN(C)CCCN1c2ccccc2Sc2ccc(Cl)cc21` [chlorpromazine, Chlorpromazine hydrochloride] was tested, and the “effect on LL-37-induced degranulation” value (LAD2 mast cells [1]; [3]) was “inhibited degranulation” and the “effect on LL-37 internalization (fluorescence intensity)” value (shortened to “effect on LL-37 internalization”) (LAD2 mast cells [2]; [3]) was “suppressed LL-37 internalization”.

With `O=c1c(-c2ccc(O)cc2)coc2cc(O)cc(O)c12` [genistein] the “effect on LL-37-induced degranulation” value (LAD2 mast cells [1]; [4]) was “did not affect” and the “effect on LL-37 internalization” value (LAD2 mast cells [2]; [4]) was “did not affect”.

In the case of pertussis toxin, the “effect on LL-37-induced degranulation” value (LAD2 mast cells [1]; [5]) is reported as “significantly suppressed” and the “effect on LL-37 internalization” value (LAD2 mast cells [2]; [5]) is reported as “significantly suppressed”.
